In patent US8921385B2, “5-substituted quinazolinone derivatives and compositions comprising and methods of using the same” (Celgene Corporation, priority 2006, dated 2014):

First: COCC(=O)Nc1cccc2nc(C)n(C3CCC(=O)NC3=O)c(=O)c12 (stereo not shown) [Example 6.20, N-[3-(2,6-Dioxo-Piperidin-3-yl)-2-Methyl-4-Oxo-3,4-Dihydro-Quinazolin-5-yl]-2-Methoxy-Acetamide]
Second: CCOCC(=O)Nc1cccc2nc(C)n(C3CCC(=O)NC3=O)c(=O)c12 (stereo not shown) [Example 6.24, N-[3-(2,6-Dioxo-Piperidin-3-yl)-2-Methyl-4-Oxo-3,4-Dihydro-Quinazolin-5-yl]-2-Ethoxy-Acetamide]
The melting point of the first is lower: 282 to 284 °C for the first, 291 to 293 °C for the second.

Compared with `Cc1nc2cccc(CNC(=O)OC(C)(C)C)c2c(=O)n1C1CCC(=O)NC1=O` (stereo not shown) [Example 6.28, [3-(2,6-Dioxo-Piperidin-3-yl)-2-Methyl-4-Oxo-3,4-Dihydro-Quinazolin-5-ylmethyl]-Carbamic Acid Tert-Butyl Ester], `Cc1nc2cccc(CNC(=O)CC(C)(C)C)c2c(=O)n1C1CCC(=O)NC1=O` (stereo not shown) [Example 6.33, N-[3-(2,6-Dioxo-Piperidin-3-yl)-2-Methyl-4-Oxo-3,4-Dihydro-Quinazolin-5-ylmethyl]-3,3-Dimethyl-Butyramide] is higher in melting point: 206 to 208 °C for the first, 212 to 214 °C for the second.

Compared with `Cc1cccc2nc(C)n([C@@]3(C)CCC(=O)NC3=O)c(=O)c12` [Example 6.7, 3R-3-(2,5-Dimethyl-4-Oxo-4H-Quinazolin-3-yl)-3-Methyl-Piperidine-2,6-Dione], `Cc1nc2cccc(N)c2c(=O)n1[C@]1(C)CCC(=O)NC1=O` [Example 6.19, (R)-3-(5-Amino-2-Methyl-4-Oxoquinazolin-3(4H)-yl)-3-Methylpiperidine-2,6-Dione] is lower in melting point: 298 to 301 °C for the first, 295 to 297 °C for the second.

Compared with `CCc1nc2cccc(C)c2c(=O)n1C1CCC(=O)NC1=O` (stereo not shown) [Example 6.13, 3-(2-Ethyl-5-Methyl-4-Oxo-4H-Quinazolin-3-yl)-Piperidine-2,6-Dione], `CCCCc1nc2cccc(C)c2c(=O)n1C1CCC(=O)NC1=O` (stereo not shown) [Example 6.14, 3-(2-Butyl-5-Methyl-4-Oxo-4H-Quinazolin-3-yl)-Piperidine-2,6-Dione] is lower in melting point: 228 to 230 °C for the first, 190 to 192 °C for the second.

First: Cc1nc2cccc(CNC(=O)Cc3ccc(C(F)(F)F)cc3)c2c(=O)n1C1CCC(=O)NC1=O (stereo not shown) [Example 6.45, N-[3-(2,6-Dioxo-Piperidin-3-yl)-2-Methyl-4-Oxo-3,4-Dihydro-Quinazolin-5-ylmethyl]-2-(4-Trifluoromethyl-Phenyl)-Acetamide]
Second: Cc1nc2cccc(CNC(=O)c3ccc(C(F)(F)F)cc3)c2c(=O)n1C1CCC(=O)NC1=O (stereo not shown) [Example 6.53, N-[3-(2,6-Dioxo-Piperidin-3-yl)-2-Methyl-4-Oxo-3,4-Dihydro-Quinazolin-5-ylmethyl]-4-Trifluoromethyl-Benzamide]
The melting point of the first is lower: 199 to 201 °C for the first, 253 to 255 °C for the second.

Compared with `Cc1nc2cccc(CNC(=O)Cc3ccccc3)c2c(=O)n1C1CCC(=O)NC1=O` (stereo not shown) [Example 6.38, N-[3-(2,6-Dioxo-Piperidin-3-yl)-2-Methyl-4-Oxo-3,4-Dihydro-Quinazolin-5-ylmethyl]-2-Phenyl-Acetamide], `Cc1nc2cccc(CNC(=O)c3ccccc3)c2c(=O)n1C1CCC(=O)NC1=O` (stereo not shown) [Example 6.55, N-[3-(2,6-Dioxo-Piperidin-3-yl)-2-Methyl-4-Oxo-3,4-Dihydro-Quinazolin-5-ylmethyl]-Benzamide] is lower in melting point: 275 to 277 °C for the first, 247 to 249 °C for the second.

Compared with `COc1cccc2nc(C)n(C3CCC(=O)NC3=O)c(=O)c12` (stereo not shown) [Example 6.8, 3-(5-Methoxy-2-Methyl-4-Oxo-4H-Quinazolin-3-yl)-Piperidine-2,6-Dione], `Cc1cccc2nc(C)n(C3CCC(=O)NC3=O)c(=O)c12` (stereo not shown) [Example 6.2, 3-(2,5-Dimethyl-4-Oxo-4H-Quinazolin-3-yl)-Piperidine-2,6-Dione] is higher in melting point: 274 to 276 °C for the first, 292 to 294 °C for the second.

Compared with `Cc1ccc(NC(=O)NCc2cccc3nc(C)n(C4CCC(=O)NC4=O)c(=O)c23)cc1C` (stereo not shown) [Example 6.48, 1-(3,4-Dimethyl-Phenyl)-3-[3-(2,6-Dioxo-Piperidin-3-yl)-2-Methyl-4-Oxo-3,4-Dihydro-Quinazolin-5-ylmethyl]-Urea], `Cc1ccc(NC(=O)NCc2cccc3nc(C)n(C4CCC(=O)NC4=O)c(=O)c23)cc1Cl` (stereo not shown) [Example 6.47, 1-(3-Chloro-4-Methyl-Phenyl)-3-[3-(2,6-Dioxo-Piperidin-3-yl)-2-Methyl-4-Oxo-3,4-Dihydro-Quinazolin-5-ylmethyl]-Urea] is higher in melting point: 241 to 243 °C for the first, 250 to 252 °C for the second.

First: Cc1cccc2ncn(C3CCC(=O)NC3=O)c(=O)c12 (stereo not shown) [Example 6.1, 3-(5-Methyl-4-Oxo-4H-Quinazolin-3-yl)-Piperidine-2,6-Dione]
Second: O=C1CCC(n2cnc3cccc(Cl)c3c2=O)C(=O)N1 (stereo not shown) [Example 6.12, 3-(5-Chloro-4-Oxo-4H-Quinazolin-3-yl)-Piperidine-2,6-Dione]
The melting point of the first is lower: 262 to 264 °C for the first, 308 to 310 °C for the second.

First: Cc1nc2cccc(CNC(=O)c3ccc(Cl)c(Cl)c3)c2c(=O)n1C1CCC(=O)NC1=O (stereo not shown) [Example 6.56, 3,4-Dichloro-N-[3-(2,6-Dioxo-Piperidin-3-yl)-2-Methyl-4-Oxo-3,4-Dihydro-Quinazolin-5-ylmethyl]-Benzamide]
Second: Cc1nc2cccc(CNC(=O)Cc3ccc(Cl)c(Cl)c3)c2c(=O)n1C1CCC(=O)NC1=O (stereo not shown) [Example 6.42, 2-(3,4-Dichloro-Phenyl)-N-[3-(2,6-Dioxo-Piperidin-3-yl)-2-Methyl-4-Oxo-3,4-Dihydro-Quinazolin-5-ylmethyl]-Acetamide]
The melting point of the first is higher: 271 to 273 °C for the first, 262 to 264 °C for the second.

Compared with `Cc1nc2cccc(NC(=O)CCl)c2c(=O)n1C1CCC(=O)NC1=O` (stereo not shown) [Example 6.26, 2-Chloro-N-[3-(2,6-Dioxo-Piperidin-3-yl)-2-Methyl-4-Oxo-3,4-Dihydro-Quinazolin-5-yl]-Acetamide], `CC(=O)Nc1cccc2nc(C)n(C3CCC(=O)NC3=O)c(=O)c12` (stereo not shown) [Example 6.21, N-[3-(2,6-Dioxo-Piperidin-3-yl)-2-Methyl-4-Oxo-3,4-Dihydro-Quinazolin-5-yl]-Acetamide] is higher in melting point: 275 to 277 °C for the first, 320 to 322 °C for the second.

First: Cc1nc2cccc(NC(=O)c3cccc(Cl)c3)c2c(=O)n1C1CCC(=O)NC1=O (stereo not shown) [Example 6.36, 3-Chloro-N-[3-(2,6-Dioxo-Piperidin-3-yl)-2-Methyl-4-Oxo-3,4-Dihydro-Quinazolin-5-yl]-Benzamide]
Second: Cc1nc2cccc(CNC(=O)c3cccc(F)c3)c2c(=O)n1C1CCC(=O)NC1=O (stereo not shown) [Example 6.52, N-[3-(2,6-Dioxo-Piperidin-3-yl)-2-Methyl-4-Oxo-3,4-Dihydro-Quinazolin-5-ylmethyl]-3-Fluoro-Benzamide]
The melting point of the first is higher: 326 to 328 °C for the first, 240 to 242 °C for the second.

Compared with `Cc1cccc2nc(-c3ccccc3)n(C3CCC(=O)NC3=O)c(=O)c12` (stereo not shown) [Example 6.16, 3-(5-Methyl-4-Oxo-2-Phenyl-4H-Quinazolin-3-yl)-Piperidine-2,6-Dione], `Cc1cccc2nc(C(F)(F)F)n(C3CCC(=O)NC3=O)c(=O)c12` (stereo not shown) [Example 6.15, 3-(5-Methyl-4-Oxo-2-Trifluoromethyl-4H-Quinazolin-3-yl)-Piperidine-2,6-Dione] is higher in melting point: 298 to 300 °C for the first, 308 to 310 °C for the second.

`Cc1ccc(CC(=O)NCc2cccc3nc(C)n(C4CCC(=O)NC4=O)c(=O)c23)cc1F` (stereo not shown) [Example 6.44, N-[3-(2,6-Dioxo-Piperidin-3-yl)-2-Methyl-4-Oxo-3,4-Dihydro-Quinazolin-5-ylmethyl]-2-(3-Fluoro-4-Methyl-Phenyl)-Acetamide] and `Cc1cccc(C(=O)NCc2cccc3nc(C)n(C4CCC(=O)NC4=O)c(=O)c23)c1` (stereo not shown) [Example 6.50, N-[3-(2,6-Dioxo-Piperidin-3-yl)-2-Methyl-4-Oxo-3,4-Dihydro-Quinazolin-5-ylmethyl]-3-Methyl-Benzamide] cannot be ordered by melting point: 264 to 266 °C for the first, 263 to 265 °C for the second.

First: Cc1nc2cccc(CNC(=O)c3ccc(Cl)cc3)c2c(=O)n1C1CCC(=O)NC1=O (stereo not shown) [Example 6.51, 4-Chloro-N-[3-(2,6-Dioxo-Piperidin-3-yl)-2-Methyl-4-Oxo-3,4-Dihydro-Quinazolin-5-ylmethyl]-Benzamide]
Second: Cc1nc2cccc(CNC(=O)Nc3ccc(Cl)cc3)c2c(=O)n1C1CCC(=O)NC1=O (stereo not shown) [Example 6.46, 1-(4-Chloro-Phenyl)-3-[3-(2,6-Dioxo-Piperidin-3-yl)-2-Methyl-4-Oxo-3,4-Dihydro-Quinazolin-5-ylmethyl]-Urea]
The melting point of the first is higher: 276 to 278 °C for the first, 255 to 257 °C for the second.

First: CCCC(=O)NCc1cccc2nc(C)n(C3CCC(=O)NC3=O)c(=O)c12 (stereo not shown) [Example 6.31, N-[3-(2,6-Dioxo-Piperidin-3-yl)-2-Methyl-4-Oxo-3,4-Dihydro-Quinazolin-5-ylmethyl]-Butyramide]
Second: CCCCCCC(=O)NCc1cccc2nc(C)n(C3CCC(=O)NC3=O)c(=O)c12 (stereo not shown) [Example 6.32, Heptanoic Acid [3-(2,6-Dioxo-Piperidin-3-yl)-2-Methyl-4-Oxo-3,4-Dihydro-Quinazolin-5-ylmethyl]-Amide]
The melting point of the first is higher: 250 to 252 °C for the first, 208 to 210 °C for the second.

Compared with `Cc1nc2cccc(CNC(=O)c3ccc(OC(F)(F)F)cc3)c2c(=O)n1C1CCC(=O)NC1=O` (stereo not shown) [Example 6.54, N-[3-(2,6-Dioxo-Piperidin-3-yl)-2-Methyl-4-Oxo-3,4-Dihydro-Quinazolin-5-ylmethyl]-4-Trifluoromethoxy-Benzamide], `Cc1nc2cccc(C(F)(F)F)c2c(=O)n1C1CCC(=O)NC1=O` (stereo not shown) [Example 6.11, 3-(2-Methyl-4-Oxo-5-Trifluoromethyl-4H-Quinazolin-3-yl)-Piperidine-2,6-Dione] is higher in melting point: 258 to 260 °C for the first, 268 to 270 °C for the second.

For `Cc1nc2cccc(Cl)c2c(=O)n1C1CCC(=O)NC1=O` (stereo not shown) [Example 6.10, 3-(5-Chloro-2-Methyl-4-Oxo-4H-Quinazolin-3-yl)-Piperidine-2,6-Dione], the melting point was 315 °C (dec.).
For `Cc1nc2cccc(CNC(=O)Cc3ccc(Cl)cc3)c2c(=O)n1C1CCC(=O)NC1=O` (stereo not shown) [Example 6.40, 2-(4-Chloro-Phenyl)-N-[3-(2,6-Dioxo-Piperidin-3-yl)-2-Methyl-4-Oxo-3,4-Dihydro-Quinazolin-5-ylmethyl]-Acetamide], the melting point was 285 °C (dec.).
With `Cc1nc2cccc(CNC(=O)CN(C)C)c2c(=O)n1C1CCC(=O)NC1=O` (stereo not shown) [Example 6.35, 2-Dimethylamino-N-[3-(2,6-Dioxo-Piperidin-3-yl)-2-Methyl-4-Oxo-3,4-Dihydro-Quinazolin-5-ylmethyl]-Acetamide] the melting point was 275 °C (dec.).
